According to PubChem BioAssay (NCI):
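Compound exposure: 48 hours, 5 concentrations, 96-well plates. GI50 = concentration required for 50% inhibition of growth. TGI denotes the concentration required for complete inhibition of growth.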

Key:
Experiment in all cases: NCI-60 cell line screen, 48 h
[1] = system: MDA-MB-231 breast
[2] = system: NCI-H460 lung
[3] = system: SF-539 CNS
[4] = system: EKVX NSCLC
[5] = system: SF-295 CNS
[6] = system: HL-60(TB) leukemia
[7] = system: CAKI-1 renal
[8] = system: HCT-116 colon
[9] = system: U251 CNS
[10] = system: SK-OV-3 ovarian
[11] = system: KM12 colon
[12] = system: COLO 205 colon
[13] = system: UACC-62 melanoma
[14] = system: HOP-62 NSCLC
[15] = system: T-47D breast
[16] = system: CCRF-CEM leukemia
[17] = system: TK-10 renal
[18] = system: SN12C renal
[19] = system: NCI-H522 lung
[20] = system: NCI/ADR-RES ovarian
[21] = system: OVCAR-4 ovarian
[22] = system: 786-0 renal
[23] = system: DU-145 prostate
[24] = system: HT29 colon
[25] = system: SNB-75 CNS
[26] = system: MCF7 breast
[27] = system: HOP-92 NSCLC
[28] = system: SK-MEL-2 melanoma
[29] = system: SNB-19 CNS
[30] = system: UACC-257 melanoma
[31] = system: SK-MEL-5 melanoma
[32] = system: SR leukemia
[33] = system: UO-31 renal
[34] = system: A498 renal
[35] = system: SW-620 colon
[36] = system: NCI-H23 lung
[37] = system: SK-MEL-28 melanoma
[38] = system: IGROV1 ovarian
[39] = system: HS 578T breast
[40] = system: NCI-H226 lung
[41] = system: MALME-3M melanoma
[42] = system: HCT-15 colon
[43] = system: M14 melanoma
[44] = system: RXF 393 renal
[45] = system: SF-268 CNS
[46] = system: A549 NSCLC
[47] = system: OVCAR-5 ovarian
[48] = system: HCC-2998 colon
[49] = system: ACHN renal
[50] = system: K-562 leukemia
[51] = system: LOX IMVI melanoma
[52] = system: MOLT-4 leukemia
[53] = system: PC-3 prostate
[54] = system: RPMI-8226 leukemia
[55] = system: OVCAR-8 ovarian
[56] = system: MDA-MB-435
[57] = system: BT-549 breast

In the case of `CC(Nc1c(C#N)cnc2ccc(-c3cnc(N)nc3)cc12)c1ccccc1` (stereo not drawn), the GI50 [1] was 850 nM, the TGI [1] was 16800 nM and the GI50 [2] was 987 nM. The TGI [2] was 11600 nM, the GI50 [3] was 1310 nM and the TGI [3] was 5980 nM. The GI50 [4] was 857 nM, the TGI [4] was > 23800 nM and the GI50 [5] was 1080 nM. For the same compound, the TGI [5] was > 23100 nM, the GI50 [6] was 2460 nM and the TGI [6] was > 39500 nM. The GI50 [7] was 441 nM, the TGI [7] was 4280 nM and the GI50 [8] was 1710 nM. For the same compound, the TGI [8] was 5930 nM, the GI50 [9] was 1550 nM and the TGI [9] was 11200 nM. It also gave a GI50 [10] of 1210 nM, a TGI [10] of 5720 nM and a GI50 [11] of 1750 nM. The TGI [11] was 8640 nM, the GI50 [12] was 1780 nM and the TGI [12] was 6820 nM. For the same compound, the GI50 [13] was 1080 nM, the TGI [13] was 4530 nM and the GI50 [14] was 1090 nM. It also gave a TGI [14] of 9820 nM, a GI50 [15] of 446 nM and a GI50 [16] of 1000 nM. For the same compound, the TGI [16] was 40200 nM, the GI50 [17] was 206 nM and the TGI [17] was 1860 nM. For the same compound, the GI50 [18] was 765 nM, the TGI [18] was 14800 nM and the GI50 [19] was 2200 nM. For the same compound, the TGI [19] was 10500 nM, the GI50 [20] was 2340 nM and the TGI [20] was 28300 nM. It also gave a GI50 [21] of 527 nM, a TGI [21] of 4760 nM and a GI50 [22] of 1360 nM. It also gave a TGI [22] of 10200 nM, a GI50 [23] of 796 nM and a TGI [23] of 13300 nM. For the same compound, the GI50 [24] was 1630 nM, the TGI [24] was 13900 nM and the GI50 [25] was 258 nM. For the same compound, the TGI [25] was 2450 nM, the GI50 [26] was 640 nM and the TGI [26] was > 35300 nM. It also gave a GI50 [27] of 138 nM, a TGI [27] of 827 nM and a GI50 [28] of 1120 nM. The TGI [28] was 2950 nM, the GI50 [29] was 1590 nM and the TGI [29] was 20000 nM. The GI50 [30] was 2110 nM, the TGI [30] was 10500 nM and the GI50 [31] was 1520 nM. For the same compound, the TGI [31] was 3090 nM, the GI50 [32] was 741 nM and the TGI [32] was > 43400 nM. For the same compound, the GI50 [33] was 252 nM, the TGI [33] was 5840 nM and the GI50 [34] was 199 nM. It also gave a TGI [34] of 1040 nM, a GI50 [35] of 2620 nM and a TGI [35] of 12200 nM. For the same compound, the GI50 [36] was 1700 nM, the TGI [36] was 11000 nM and the GI50 [37] was 1590 nM. The TGI [37] was 8970 nM, the GI50 [38] was 374 nM and the TGI [38] was 2400 nM. For the same compound, the GI50 [39] was 422 nM, the TGI [39] was 2840 nM and the GI50 [40] was 1530 nM. The TGI [40] was 16600 nM, the GI50 [41] was 527 nM and the TGI [41] was 3790 nM. The GI50 [42] was 1240 nM, the TGI [42] was > 38600 nM and the GI50 [43] was 1560 nM. It also gave a TGI [43] of 11200 nM, a GI50 [44] of 559 nM and a TGI [44] of 3900 nM. For the same compound, the GI50 [45] was 1240 nM, the TGI [45] was 8790 nM and the GI50 [46] was 1030 nM. It also gave a TGI [46] of 11700 nM, a GI50 [47] of 787 nM and a TGI [47] of 13600 nM. It also gave a GI50 [48] of 2000 nM, a TGI [48] of 13600 nM and a GI50 [49] of 785 nM. The TGI [49] was 13200 nM, the GI50 [50] was 2160 nM and the TGI [50] was > 100000 nM. The GI50 [51] was 915 nM, the TGI [51] was 5850 nM and the GI50 [52] was 870 nM. The TGI [52] was 6140 nM, the GI50 [53] was 720 nM and the TGI [53] was 10600 nM. The GI50 [54] was 382 nM, the TGI [54] was 2960 nM and the GI50 [55] was 1720 nM. For the same compound, the TGI [55] was 11600 nM, the GI50 [56] was 1670 nM and the TGI [56] was 9570 nM. For the same compound, the GI50 [57] was 410 nM and the TGI [57] was 4510 nM.
